Reference: ChEMBL document CHEMBL2417394, “Exquisite selectivity for human toll-like receptor 8 in substituted furo[2,3-c]quinolines” (J Med Chem, 2013)
Calls of active or inactive are those of the source. The calls are words filed in the database; no cut-off is given here.

Key:
[1] = molecular target: T1, Toll-like receptor 8 (Homo sapiens) (UniProt Q9NR97); assay: Agonist activity at TLR8 in human PBMC assessed as increase of MIP1beta level after 12 hrs
T1 sequence (whole entry): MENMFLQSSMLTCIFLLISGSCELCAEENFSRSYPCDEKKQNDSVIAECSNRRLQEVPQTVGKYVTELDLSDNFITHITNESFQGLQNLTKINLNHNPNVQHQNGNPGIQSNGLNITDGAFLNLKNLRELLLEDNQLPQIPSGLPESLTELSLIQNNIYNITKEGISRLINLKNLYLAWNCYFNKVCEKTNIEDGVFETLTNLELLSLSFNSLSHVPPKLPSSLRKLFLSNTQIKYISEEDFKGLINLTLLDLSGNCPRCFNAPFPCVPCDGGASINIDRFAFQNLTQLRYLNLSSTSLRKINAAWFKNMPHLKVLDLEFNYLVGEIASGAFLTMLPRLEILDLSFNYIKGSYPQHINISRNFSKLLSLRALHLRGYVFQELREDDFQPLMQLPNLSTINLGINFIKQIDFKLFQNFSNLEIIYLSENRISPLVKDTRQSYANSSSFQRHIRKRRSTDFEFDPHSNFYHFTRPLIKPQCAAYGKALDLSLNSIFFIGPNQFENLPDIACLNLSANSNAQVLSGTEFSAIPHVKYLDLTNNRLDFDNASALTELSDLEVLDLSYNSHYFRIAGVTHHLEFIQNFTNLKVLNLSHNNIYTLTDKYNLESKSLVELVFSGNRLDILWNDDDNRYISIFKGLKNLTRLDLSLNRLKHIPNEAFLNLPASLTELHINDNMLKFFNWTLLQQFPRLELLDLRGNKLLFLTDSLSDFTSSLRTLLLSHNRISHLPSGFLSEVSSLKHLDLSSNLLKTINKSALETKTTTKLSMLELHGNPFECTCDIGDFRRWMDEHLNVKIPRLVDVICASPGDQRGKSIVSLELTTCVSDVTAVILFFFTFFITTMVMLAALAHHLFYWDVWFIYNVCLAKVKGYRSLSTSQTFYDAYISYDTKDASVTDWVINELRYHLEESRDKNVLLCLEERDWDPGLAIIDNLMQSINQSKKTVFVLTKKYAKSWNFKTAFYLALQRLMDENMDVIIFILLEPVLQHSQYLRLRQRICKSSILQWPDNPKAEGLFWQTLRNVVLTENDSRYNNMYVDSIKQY

[2] = molecular target: T1, Toll-like receptor 8 (Homo sapiens); assay: Agonist activity at TLR8 in human PBMC assessed as increase of MIP1alpha level after 12 hrs
[3] = molecular target: T1, Toll-like receptor 8 (Homo sapiens); assay: Agonist activity at TLR8 in human PBMC assessed as increase of GRO level after 12 hrs
[4] = molecular target: T1, Toll-like receptor 8 (Homo sapiens); assay: Agonist activity at TLR8 in human PBMC assessed as increase of G-CSF level after 12 hrs
[5] = molecular target: T1, Toll-like receptor 8 (Homo sapiens); assay: Agonist activity at human TLR8 expressed in HEK293 cells co-transfected with MD2 and sAP assessed as induction of NF-kappaB activity by reporter gene assay; assay type: cell-based
[6] = molecular target: T1, Toll-like receptor 8 (Homo sapiens); assay: Modulation of human TLR8 expressed in HEK293 cells co-transfected with MD2 and sAP assessed as induction of NF-kappaB activity by reporter gene assay; assay type: cell-based
[7] = molecular target: T2, Nucleotide-binding oligomerization domain-containing protein 1 (Homo sapiens) (UniProt Q9Y239); assay: Modulation of NOD1 (unknown origin)
T2 sequence (whole entry): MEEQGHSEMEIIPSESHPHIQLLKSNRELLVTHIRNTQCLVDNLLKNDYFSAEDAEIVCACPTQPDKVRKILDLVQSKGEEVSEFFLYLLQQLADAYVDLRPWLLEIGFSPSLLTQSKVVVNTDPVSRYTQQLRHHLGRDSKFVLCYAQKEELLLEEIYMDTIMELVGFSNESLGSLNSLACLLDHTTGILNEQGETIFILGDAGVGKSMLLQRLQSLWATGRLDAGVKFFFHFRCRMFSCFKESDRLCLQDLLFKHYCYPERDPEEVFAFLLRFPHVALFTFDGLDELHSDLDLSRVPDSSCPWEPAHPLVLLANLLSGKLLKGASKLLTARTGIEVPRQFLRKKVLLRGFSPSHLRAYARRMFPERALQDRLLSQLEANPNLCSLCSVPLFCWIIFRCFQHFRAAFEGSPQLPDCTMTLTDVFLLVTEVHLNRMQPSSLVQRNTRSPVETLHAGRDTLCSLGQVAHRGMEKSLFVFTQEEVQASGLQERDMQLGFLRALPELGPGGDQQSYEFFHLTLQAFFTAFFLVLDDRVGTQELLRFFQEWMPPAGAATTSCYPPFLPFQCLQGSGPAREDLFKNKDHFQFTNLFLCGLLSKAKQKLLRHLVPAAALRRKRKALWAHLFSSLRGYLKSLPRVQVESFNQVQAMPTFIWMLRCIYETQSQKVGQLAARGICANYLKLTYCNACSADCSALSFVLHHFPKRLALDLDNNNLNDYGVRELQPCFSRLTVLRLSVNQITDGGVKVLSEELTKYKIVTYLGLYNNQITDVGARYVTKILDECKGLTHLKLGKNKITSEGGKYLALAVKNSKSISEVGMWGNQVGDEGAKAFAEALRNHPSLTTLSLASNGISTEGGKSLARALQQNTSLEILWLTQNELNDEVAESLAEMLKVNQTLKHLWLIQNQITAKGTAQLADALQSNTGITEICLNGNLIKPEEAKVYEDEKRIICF

[8] = molecular target: Nucleotide-binding oligomerization domain-containing protein 2 (Homo sapiens) (UniProt Q9HC29); assay: Modulation of NOD2 (unknown origin)
Nucleotide-binding oligomerization domain-containing protein 2 (Homo sapiens), sequence (Q9HC29 whole entry, the tested form may be a part): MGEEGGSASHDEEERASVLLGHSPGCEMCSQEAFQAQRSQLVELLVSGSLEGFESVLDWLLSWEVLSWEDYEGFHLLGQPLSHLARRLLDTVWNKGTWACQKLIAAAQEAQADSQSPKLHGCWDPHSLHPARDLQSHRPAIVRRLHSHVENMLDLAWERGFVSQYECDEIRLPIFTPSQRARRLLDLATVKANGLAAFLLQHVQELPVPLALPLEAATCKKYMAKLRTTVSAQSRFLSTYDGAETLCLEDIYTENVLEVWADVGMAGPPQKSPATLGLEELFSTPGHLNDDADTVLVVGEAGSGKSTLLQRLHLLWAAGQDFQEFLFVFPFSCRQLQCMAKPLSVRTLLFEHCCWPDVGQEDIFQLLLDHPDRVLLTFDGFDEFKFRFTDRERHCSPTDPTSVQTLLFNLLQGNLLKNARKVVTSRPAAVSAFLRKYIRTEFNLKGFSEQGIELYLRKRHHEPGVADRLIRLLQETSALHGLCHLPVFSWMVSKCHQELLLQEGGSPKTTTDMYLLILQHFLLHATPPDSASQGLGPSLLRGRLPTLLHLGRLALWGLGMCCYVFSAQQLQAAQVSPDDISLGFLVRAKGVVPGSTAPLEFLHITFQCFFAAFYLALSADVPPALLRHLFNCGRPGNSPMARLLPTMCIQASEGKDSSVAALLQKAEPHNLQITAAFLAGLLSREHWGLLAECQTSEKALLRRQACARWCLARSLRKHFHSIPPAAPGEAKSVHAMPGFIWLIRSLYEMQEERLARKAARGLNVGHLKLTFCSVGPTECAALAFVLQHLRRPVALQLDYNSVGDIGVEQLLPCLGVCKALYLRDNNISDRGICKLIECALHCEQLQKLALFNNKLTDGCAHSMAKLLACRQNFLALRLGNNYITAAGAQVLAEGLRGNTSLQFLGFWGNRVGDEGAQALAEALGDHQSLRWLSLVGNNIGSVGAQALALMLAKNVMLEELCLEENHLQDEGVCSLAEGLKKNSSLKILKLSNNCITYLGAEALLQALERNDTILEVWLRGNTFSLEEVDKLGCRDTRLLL

[9] = molecular target: T3, Toll-like receptor 9 (Homo sapiens) (UniProt Q9NR96); assay: Modulation of human TLR9 expressed in HEK293 cells co-transfected with MD2 and sAP assessed as induction of NF-kappaB activity by reporter gene assay; assay type: cell-based
T3 sequence (whole entry): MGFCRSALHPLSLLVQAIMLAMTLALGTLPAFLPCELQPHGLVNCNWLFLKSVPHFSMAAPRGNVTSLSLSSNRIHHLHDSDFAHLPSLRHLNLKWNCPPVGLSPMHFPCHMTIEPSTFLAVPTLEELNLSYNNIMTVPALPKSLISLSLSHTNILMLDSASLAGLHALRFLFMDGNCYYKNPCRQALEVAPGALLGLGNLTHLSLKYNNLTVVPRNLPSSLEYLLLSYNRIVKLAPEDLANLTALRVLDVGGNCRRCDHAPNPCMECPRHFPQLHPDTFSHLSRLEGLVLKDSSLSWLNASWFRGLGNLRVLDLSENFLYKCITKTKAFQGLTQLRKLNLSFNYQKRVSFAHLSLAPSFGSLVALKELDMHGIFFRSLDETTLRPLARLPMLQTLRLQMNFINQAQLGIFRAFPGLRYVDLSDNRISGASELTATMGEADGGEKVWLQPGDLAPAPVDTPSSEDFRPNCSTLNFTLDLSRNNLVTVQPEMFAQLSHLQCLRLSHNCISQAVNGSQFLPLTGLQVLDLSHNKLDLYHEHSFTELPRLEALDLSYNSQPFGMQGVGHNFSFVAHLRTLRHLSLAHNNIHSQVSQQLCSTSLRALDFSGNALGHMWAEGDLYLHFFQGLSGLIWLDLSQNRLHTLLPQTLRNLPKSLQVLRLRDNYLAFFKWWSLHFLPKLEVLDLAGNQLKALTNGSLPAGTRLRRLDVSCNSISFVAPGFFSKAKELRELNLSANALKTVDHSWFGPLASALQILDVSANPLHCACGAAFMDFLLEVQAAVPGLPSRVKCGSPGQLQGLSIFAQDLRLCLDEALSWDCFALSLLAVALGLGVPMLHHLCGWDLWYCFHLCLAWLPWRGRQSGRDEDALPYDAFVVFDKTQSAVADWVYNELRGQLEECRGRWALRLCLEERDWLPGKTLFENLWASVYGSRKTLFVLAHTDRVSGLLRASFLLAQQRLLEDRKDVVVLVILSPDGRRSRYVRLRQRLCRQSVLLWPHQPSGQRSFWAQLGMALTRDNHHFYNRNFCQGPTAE

CCCCc1nc2c(N)nc3ccccc3c2n1Cc1ccccc1 was tested, and the Activity [1] was “inactive”, the Activity [2] was “inactive” and the Activity [3] was “inactive”. The Activity [4] was “inactive”.

CCCc1cc2c(o1)c(N)nc1ccccc12 was tested, and the Activity [5] was “Active” and the Activity [6] was “Active”.

For CCCCCc1cc2c(o1)c(N)nc1ccccc12, the Activity [5] was “Active” and the Activity [6] was “Active”.

In the case of Nc1nc2ccccc2c2ccoc12, the Activity [5] is reported as “inactive”.

For CCCCCCc1cc2c(o1)c(N)nc1ccccc12, the Activity [5] was “Active” and the Activity [6] was “Active”.

CCCCc1cc2c(o1)c(N)nc1ccccc12 was tested, and the Activity [7] was “Active”, the Activity [8] was “Active” and the Activity [9] was “Active”.

In the case of CCCc1nc2c(N)nc3ccccc3c2s1, the Activity [1] is reported as “Active”, the Activity [2] is reported as “Active” and the Activity [3] is reported as “Active”. The Activity [4] was “Active”.

For Cc1cc2c(o1)c(N)nc1ccccc12, the Activity [5] was “Active” and the Activity [6] was “Active”.
